# Assay results reported in the NIST ThermoML archive (doi:10.1016/j.fluid.2010.06.020).
# Numbers after ± are expanded uncertainties.
# Conditions: Liquid, Ebulliometric method (Recirculating still)
compound,measurement,setting,value
CCC(C)CO (stereo not given) [2-methyl-1-butanol],vapor or sublimation pressure,345.51 K,9.333 ± 0.027 kPa
same,vapor or sublimation pressure,350.44 K,12 ± 0.029 kPa
same,vapor or sublimation pressure,354.51 K,14.66 ± 0.032 kPa
same,vapor or sublimation pressure,358.02 K,17.33 ± 0.037 kPa
same,vapor or sublimation pressure,361.8 K,20.66 ± 0.041 kPa
same,vapor or sublimation pressure,365.12 K,24 ± 0.046 kPa
same,vapor or sublimation pressure,368.62 K,28 ± 0.051 kPa
same,vapor or sublimation pressure,371.74 K,32 ± 0.056 kPa
same,vapor or sublimation pressure,374.56 K,36 ± 0.062 kPa
same,vapor or sublimation pressure,377.13 K,40 ± 0.067 kPa
same,vapor or sublimation pressure,379.5 K,44 ± 0.073 kPa
same,vapor or sublimation pressure,382.05 K,48.66 ± 0.078 kPa
same,vapor or sublimation pressure,384.41 K,53.33 ± 0.084 kPa
same,vapor or sublimation pressure,386.92 K,58.66 ± 0.09 kPa
same,vapor or sublimation pressure,389.23 K,63.99 ± 0.097 kPa
same,vapor or sublimation pressure,391.4 K,69.33 ± 0.1 kPa
same,vapor or sublimation pressure,393.43 K,74.66 ± 0.11 kPa
same,vapor or sublimation pressure,395.35 K,79.99 ± 0.12 kPa
same,vapor or sublimation pressure,397.17 K,85.33 ± 0.12 kPa
same,vapor or sublimation pressure,398.9 K,90.66 ± 0.13 kPa
same,vapor or sublimation pressure,400.96 K,97.33 ± 0.13 kPa
CCC(C)(C)O [2-methylbutan-2-ol],vapor or sublimation pressure,335.75 K,19.33 ± 0.044 kPa
same,vapor or sublimation pressure,339.03 K,22.66 ± 0.046 kPa
same,vapor or sublimation pressure,341.93 K,26 ± 0.051 kPa
same,vapor or sublimation pressure,344.54 K,29.33 ± 0.056 kPa
same,vapor or sublimation pressure,346.91 K,32.66 ± 0.061 kPa
same,vapor or sublimation pressure,349.1 K,36 ± 0.066 kPa
same,vapor or sublimation pressure,351.52 K,40 ± 0.071 kPa
same,vapor or sublimation pressure,353.75 K,44 ± 0.076 kPa
same,vapor or sublimation pressure,355.83 K,48 ± 0.082 kPa
same,vapor or sublimation pressure,357.78 K,52 ± 0.087 kPa
same,vapor or sublimation pressure,359.9 K,56.66 ± 0.093 kPa
same,vapor or sublimation pressure,361.88 K,61.33 ± 0.099 kPa
same,vapor or sublimation pressure,364.01 K,66.66 ± 0.1 kPa
same,vapor or sublimation pressure,366.01 K,71.99 ± 0.11 kPa
same,vapor or sublimation pressure,367.9 K,77.33 ± 0.12 kPa
same,vapor or sublimation pressure,369.69 K,82.66 ± 0.12 kPa
same,vapor or sublimation pressure,371.8 K,89.33 ± 0.13 kPa
same,vapor or sublimation pressure,373.79 K,95.99 ± 0.14 kPa
same,vapor or sublimation pressure,374.56 K,98.66 ± 0.14 kPa
CC(C)C(C)O (stereo not given) [3-methyl-2-butanol],vapor or sublimation pressure,352.84 K,28.66 ± 0.057 kPa
same,vapor or sublimation pressure,355.33 K,32 ± 0.06 kPa
same,vapor or sublimation pressure,357.63 K,35.33 ± 0.064 kPa
same,vapor or sublimation pressure,359.76 K,38.66 ± 0.069 kPa
same,vapor or sublimation pressure,361.74 K,42 ± 0.073 kPa
same,vapor or sublimation pressure,363.6 K,45.33 ± 0.078 kPa
same,vapor or sublimation pressure,365.69 K,49.33 ± 0.083 kPa
same,vapor or sublimation pressure,367.65 K,53.33 ± 0.088 kPa
same,vapor or sublimation pressure,369.5 K,57.33 ± 0.094 kPa
same,vapor or sublimation pressure,371.24 K,61.33 ± 0.099 kPa
same,vapor or sublimation pressure,372.9 K,65.33 ± 0.1 kPa
same,vapor or sublimation pressure,374.99 K,70.66 ± 0.11 kPa
same,vapor or sublimation pressure,376.95 K,75.99 ± 0.12 kPa
same,vapor or sublimation pressure,378.81 K,81.33 ± 0.12 kPa
same,vapor or sublimation pressure,380.58 K,86.66 ± 0.13 kPa
same,vapor or sublimation pressure,382.26 K,91.99 ± 0.14 kPa
same,vapor or sublimation pressure,383.87 K,97.33 ± 0.14 kPa
same,vapor or sublimation pressure,384.45 K,99.33 ± 0.14 kPa
CC(C)CCO [3-methylbutan-1-ol],vapor or sublimation pressure,366.27 K,22.66 ± 0.047 kPa
same,vapor or sublimation pressure,369.95 K,26.66 ± 0.049 kPa
same,vapor or sublimation pressure,373.24 K,30.66 ± 0.055 kPa
same,vapor or sublimation pressure,376.14 K,34.66 ± 0.061 kPa
same,vapor or sublimation pressure,379.65 K,40 ± 0.067 kPa
same,vapor or sublimation pressure,382.78 K,45.33 ± 0.074 kPa
same,vapor or sublimation pressure,385.62 K,50.66 ± 0.081 kPa
same,vapor or sublimation pressure,388.23 K,55.99 ± 0.088 kPa
same,vapor or sublimation pressure,390.64 K,61.33 ± 0.095 kPa
same,vapor or sublimation pressure,392.88 K,66.66 ± 0.1 kPa
same,vapor or sublimation pressure,395.48 K,73.33 ± 0.11 kPa
same,vapor or sublimation pressure,397.9 K,79.99 ± 0.12 kPa
same,vapor or sublimation pressure,400.18 K,86.66 ± 0.12 kPa
same,vapor or sublimation pressure,402.32 K,93.33 ± 0.13 kPa
same,vapor or sublimation pressure,403.77 K,97.99 ± 0.13 kPa
CCC(O)CC [3-pentanol],vapor or sublimation pressure,342.02 K,14.66 ± 0.035 kPa
same,vapor or sublimation pressure,345.41 K,17.33 ± 0.037 kPa
same,vapor or sublimation pressure,348.4 K,20 ± 0.041 kPa
same,vapor or sublimation pressure,351.07 K,22.66 ± 0.046 kPa
same,vapor or sublimation pressure,354.07 K,26 ± 0.05 kPa
same,vapor or sublimation pressure,356.77 K,29.33 ± 0.054 kPa
same,vapor or sublimation pressure,359.24 K,32.66 ± 0.058 kPa
same,vapor or sublimation pressure,360.62 K,34.66 ± 0.063 kPa
same,vapor or sublimation pressure,362.79 K,38 ± 0.066 kPa
same,vapor or sublimation pressure,364.81 K,41.33 ± 0.071 kPa
same,vapor or sublimation pressure,367.06 K,45.33 ± 0.076 kPa
same,vapor or sublimation pressure,369.16 K,49.33 ± 0.081 kPa
same,vapor or sublimation pressure,371.13 K,53.33 ± 0.086 kPa
same,vapor or sublimation pressure,372.99 K,57.33 ± 0.091 kPa
same,vapor or sublimation pressure,374.75 K,61.33 ± 0.096 kPa
same,vapor or sublimation pressure,376.95 K,66.66 ± 0.1 kPa
same,vapor or sublimation pressure,379.02 K,71.99 ± 0.11 kPa
same,vapor or sublimation pressure,380.97 K,77.33 ± 0.11 kPa
same,vapor or sublimation pressure,382.82 K,82.66 ± 0.12 kPa
same,vapor or sublimation pressure,385 K,89.33 ± 0.13 kPa
same,vapor or sublimation pressure,387.06 K,95.99 ± 0.13 kPa
same,vapor or sublimation pressure,387.65 K,97.99 ± 0.14 kPa
CCCC(C)O (stereo not given) [pentan-2-ol],vapor or sublimation pressure,350.91 K,18.66 ± 0.041 kPa
same,vapor or sublimation pressure,353.74 K,21.33 ± 0.043 kPa
same,vapor or sublimation pressure,356.29 K,24 ± 0.047 kPa
same,vapor or sublimation pressure,358.61 K,26.66 ± 0.051 kPa
same,vapor or sublimation pressure,361.26 K,30 ± 0.055 kPa
same,vapor or sublimation pressure,363.69 K,33.33 ± 0.06 kPa
same,vapor or sublimation pressure,365.92 K,36.66 ± 0.064 kPa
same,vapor or sublimation pressure,368 K,40 ± 0.069 kPa
same,vapor or sublimation pressure,370.31 K,44 ± 0.074 kPa
same,vapor or sublimation pressure,372.45 K,48 ± 0.079 kPa
same,vapor or sublimation pressure,374.46 K,52 ± 0.084 kPa
same,vapor or sublimation pressure,376.35 K,55.99 ± 0.089 kPa
same,vapor or sublimation pressure,378.13 K,59.99 ± 0.095 kPa
same,vapor or sublimation pressure,380.36 K,65.33 ± 0.1 kPa
same,vapor or sublimation pressure,382.45 K,70.66 ± 0.11 kPa
same,vapor or sublimation pressure,384.42 K,75.99 ± 0.11 kPa
same,vapor or sublimation pressure,386.27 K,81.33 ± 0.12 kPa
same,vapor or sublimation pressure,388.47 K,87.99 ± 0.13 kPa
same,vapor or sublimation pressure,390.53 K,94.66 ± 0.13 kPa
same,vapor or sublimation pressure,391.32 K,97.33 ± 0.14 kPa
